Measured values as given in patent publication US9956220B2, “Imidazo-pyridazine derivatives as casein kinase 1 δ/ϵ inhibitors” (Bristol-Myers Squibb Company, priority 2014, dated 2018).

Key:
CK1ϵ = CK1ϵ (Homo sapiens, UniProt P49674); assay: CK1ϵ kinase assay (Caliper LABCHIP electrophoretic separation of fluoresceinated peptide substrate and product); format: biochemical; conditions: 200 pM CK1ϵ, 50 μM ATP, 1.5 μM peptide substrate, 22 hours at room temperature; read-out: CK1ε (IC50)
Description: (§1) CK1ϵ and CK1δ Kinase Assays
(§2) The kinase assay was performed in V-bottom 384-well plates.
(§3) The reaction was incubated at room temperature for 22 hours and terminated by adding 45 μl of 35 mM EDTA to each sample. The reaction mixture was analyzed on the Caliper LABCHIP®3000 (Caliper, Hopkinton, Mass.) by electrophoretic separation of the unphosphorylated substrate and phosphorylated product. […] Compounds were dissolved at 10 mM in dimethylsulfoxide (DMSO) and evaluated at eleven concentrations. IC50 values were derived by non-linear regression analysis.

CK1δ = CK1δ (Homo sapiens, UniProt P48730); assay: CK1δ kinase assay (Caliper LABCHIP electrophoretic separation of fluoresceinated peptide substrate and product); format: biochemical; conditions: 200 pM CK1δ, 50 μM ATP, 1.5 μM peptide substrate, 22 hours at room temperature
Sequence of CK1δ (P48730 whole entry): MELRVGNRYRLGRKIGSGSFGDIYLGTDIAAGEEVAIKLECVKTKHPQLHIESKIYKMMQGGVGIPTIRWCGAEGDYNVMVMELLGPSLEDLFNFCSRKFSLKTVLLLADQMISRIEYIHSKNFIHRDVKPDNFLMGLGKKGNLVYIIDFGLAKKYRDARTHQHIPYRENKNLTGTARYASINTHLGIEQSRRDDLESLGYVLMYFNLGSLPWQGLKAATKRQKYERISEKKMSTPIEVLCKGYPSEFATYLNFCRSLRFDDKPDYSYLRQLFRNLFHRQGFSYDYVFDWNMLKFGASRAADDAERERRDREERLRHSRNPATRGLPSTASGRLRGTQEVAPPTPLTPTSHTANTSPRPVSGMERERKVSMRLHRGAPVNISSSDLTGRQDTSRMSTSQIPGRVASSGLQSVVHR
Description: as §1, §2, §3

Sequence of CK1ϵ (P49674 whole entry): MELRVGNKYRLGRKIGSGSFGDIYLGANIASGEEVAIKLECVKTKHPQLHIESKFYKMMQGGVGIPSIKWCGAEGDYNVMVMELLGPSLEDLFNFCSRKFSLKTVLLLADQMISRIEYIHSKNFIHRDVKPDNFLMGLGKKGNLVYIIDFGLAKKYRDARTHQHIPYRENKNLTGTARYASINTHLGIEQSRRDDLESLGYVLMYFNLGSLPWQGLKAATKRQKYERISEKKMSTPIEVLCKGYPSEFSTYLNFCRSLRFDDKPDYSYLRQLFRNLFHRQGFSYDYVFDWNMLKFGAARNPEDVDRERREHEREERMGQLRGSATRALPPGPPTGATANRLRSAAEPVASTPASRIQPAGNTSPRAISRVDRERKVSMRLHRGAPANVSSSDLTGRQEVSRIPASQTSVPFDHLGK

IC50 (CK1ϵ) [nM]	IC50 (CK1δ) [nM]	SMILES
4.6	0.4	Cn1cnc(S(=O)(=O)N2CCn3nc(-c4ccc(F)cc4)c(-c4ccc5nc(NC(=O)c6ccnc(F)c6)cn5n4)c3C2)c1 [Example 39, 2-Fluoro-N-(6-(2-(4-fluorophenyl)-5-((1-methyl-1H-imidazol-4-yl)sulfonyl)-4,5,6,7-tetrahydropyrazolo [1,5-a]pyrazin-3-yl)imidazo [1,2-b]pyridazin-2-yl) isonicotinamide]
1.9	0.3	COC(=O)N1CCn2nc(-c3ccc(F)cc3)c(-c3ccc4nc(NC(=O)c5ccnc(F)c5)cn4n3)c2C1 [Example 33, Methyl 3-(2-(2-fluoroisonicotinamido)imidazo[1,2-b]pyridazin-6-yl)-2-(4-fluorophenyl)-6,7-dihydropyrazolo[1,5-a]pyrazine-5(4H)-carboxylate]
1.1	0.1	O=C(Nc1cn2nc(-c3c(-c4ccc(F)cc4)nn4c3CN(C3CC3)CC4)ccc2n1)c1ccnc(F)c1 [Example 31, N-(6-(5-Cyclopropyl-2-(4-fluorophenyl)-4,5,6,7-tetrahydropyrazolo[1,5-a]pyrazin-3-yl)imidazo[1,2-b]pyridazin-2-yl)-2-fluoroisonicotinamide]
2.5	0.2	O=C(Nc1cn2nc(-c3c(-c4ccc(F)cc4)nn4c3CN(CCCF)CC4)ccc2n1)c1ccnc(F)c1 [Example 28, 2-Fluoro-N-(6-(2-(4-fluorophenyl)-5-(3-fluoropropyl)-4,5,6,7-tetrahydropyrazolo[1,5-a]pyrazin-3-yl)imidazo[1,2-b]pyridazin-2-yl)isonicotinamide]
4.9	0.3	O=C(Nc1cn2nc(-c3c(-c4ccc(F)cc4)nn4c3CN(S(=O)(=O)c3cccc(F)c3)CC4)ccc2n1)c1ccnc(F)c1 [Example 38, 2-Fluoro-N-(6-(2-(4-fluorophenyl)-5-((3-fluorophenyl)sulfonyl)-4,5,6,7-tetrahydropyrazolo [1,5-a]pyrazin-3-yl)imidazo [1,2-b]pyridazin-2-yl) isonicotinamide]
0.8	0.2	CS(=O)(=O)N1CCn2nc(-c3ccc(F)cc3)c(-c3ccc4nc(NC(=O)c5ccnc(F)c5)cn4n3)c2C1 [Example 35, 2-Fluoro-N-(6-(2-(4-fluorophenyl)-5-(methylsulfonyl)-4,5,6,7-tetrahydropyrazolo[1,5-a]pyrazin-3-yl)imidazo[1,2-b]pyridazin-2-yl)isonicotinamide]
1.2	0.1	O=C(Nc1cn2nc(-c3c(-c4ccc(F)cc4)nn4c3CN(S(=O)(=O)C3CC3)CC4)ccc2n1)c1ccnc(F)c1 [Example 36, N-(6-(5-(Cyclopropylsulfonyl)-2-(4-fluorophenyl)-4,5,6,7-tetrahydropyrazolo[1,5-a]pyrazin-3-yl)imidazo[1,2-b]pyridazin-2-yl)-2-fluoroisonicotinamide]
14	1.1	O=C(Nc1cn2nc(-c3c(-c4ccc(F)cc4)nn4c3CN(S(=O)(=O)c3ccc(F)cc3)CC4)ccc2n1)c1ccnc(F)c1 [Example 37, 2-Fluoro-N-(6-(2-(4-fluorophenyl)-5-((4-fluorophenyl)sulfonyl)-4,5,6,7-tetrahydropyrazolo [1,5-a]pyrazin-3-yl)imidazo [1,2-b]pyridazin-2-yl) isonicotinamide]

Second part, the compound before the results:

SMILES	IC50 (CK1ϵ) [nM]	IC50 (CK1δ) [nM]
O=C(Nc1cn2nc(-c3c(-c4ccc(F)cc4)nn4c3COCC4)ccc2n1)c1ccnc(N2CCOCC2)c1 [Example 55, N-(6-(2-(4-Fluorophenyl)-6,7-dihydro-4H-pyrazolo[5,1-c][1,4]oxazin-3-yl)imidazo[1,2-b]pyridazin-2-yl)-2-morpholinoisonicotinamide]	2.4	0.3
O=C(Nc1cn2nc(-c3c(-c4ccc(F)cc4)nn4c3CCC4)ccc2n1)c1ccnc(F)c1 [Example 65, 2-Fluoro-N-(6-(2-(4-fluorophenyl)-5,6-dihydro-4H-pyrrolo[1,2-b]pyrazol-3-yl)imidazo[1,2-b]pyridazin-2-yl)isonicotinamide]	4.7	0.4
O=C(Nc1cn2nc(-c3c(-c4ccc(F)cc4)nn4c3CN(C(=O)c3ccccc3F)CC4)ccc2n1)c1ccnc(F)c1 [Example 23, 2-Fluoro-N-(6-(5-(2-fluorobenzoyl)-2-(4-fluorophenyl)-4,5,6,7-tetrahydropyrazolo[1,5-a]pyrazin-3-yl)imidazo[1,2-b]pyridazin-2-yl) isonicotinamide]	0.4	0.1
O=C(Nc1cn2nc(-c3c(-c4ccc(F)cc4)noc3C3CCOCC3)ccc2n1)c1ccnc(-c2cccnc2)c1 [Example 71, N-(6-(3-(4-Fluorophenyl)-5-(tetrahydro-2H-pyran-4-yl)isoxazol-4-yl)imidazo[1,2-b]pyridazin-2-yl)-[2,3′-bipyridine]-4-carboxamide]	29	2.5
O=C(Nc1cn2nc(-c3c(-c4ccc(F)cc4)nn4c3CCC4)ccc2n1)c1cc(F)nc(F)c1 [Example 66, 2,6-Difluoro-N-(6-(2-(4-fluorophenyl)-5,6-dihydro-4H-pyrrolo[1,2-b]pyrazol-3-yl)imidazo[1,2-b]pyridazin-2-yl)isonicotinamide]	5.3	0.7
O=C(Nc1cn2nc(-c3c(-c4ccc(F)cc4)nn4c3CN(C(=O)NCC(F)(F)F)CC4)ccc2n1)c1ccnc(F)c1 [Example 48, 3-(2-(2-Fluoroisonicotinamido)imidazo[1,2-b]pyridazin-6-yl)-2-(4-fluorophenyl)-N-(2,2,2-trifluoroethyl)-6,7-dihydropyrazolo[1,5-a]pyrazine-5(4H)-carboxamide]	5.6	0.4
O=C(Nc1cn2nc(-c3c(-c4ccc(F)cc4)nn4c3CN(C(=O)c3ccncc3)CC4)ccc2n1)c1ccnc(F)c1 [Example 13, 2-Fluro-N-(6-(2-(4-fluorophenyl)-5-isonicotinoyl-4,5,6,7-tetrahydropyrazolo[1,5-a]pyrazin-3-yl)imidazo[1,2-b]pyridazin-2-yl) isonicotinamide]	4.5	0.5
O=C(Nc1cn2nc(-c3c(-c4ccc(F)cc4)nn4c3CN(C(=O)c3cccc(F)c3)CC4)ccc2n1)c1ccnc(F)c1 [Example 19, 2-Fluoro-N-(6-(5-(3-fluorobenzoyl)-2-(4-fluorophenyl)-4,5,6,7-tetrahydropyrazolo[1,5-a]pyrazin-3-yl)imidazo[1,2-b]pyridazin-2-yl) isonicotinamide]	2.7	0.2
O=C(Nc1cn2nc(-c3c(-c4ccc(F)cc4)nn4c3CN(C(=O)c3ccc(F)cc3)CC4)ccc2n1)c1ccnc(F)c1 [Example 14, 2-Fluoro-N-(6-(5-(4-fluorobenzoyl)-2-(4-fluorophenyl)-4,5,6,7-tetrahydropyrazolo[1,5-a]pyrazin-3-yl)imidazo[1,2-b]pyridazin-2-yl) isonicotinamide]	3.1	0.5
O=C(Nc1cn2nc(-c3c(-c4ccc(F)cc4)nn4c3CN(C(=O)c3ccnc(F)c3)CC4)ccc2n1)c1ccnc(F)c1 [Example 20, 2-Fluoro-N-(6-(5-(2-fluoroisonicotinoyl)-2-(4-fluorophenyl)-4,5,6,7-tetrahydropyrazolo[1,5-a]pyrazin-3-yl)imidazo[1,2-b]pyridazin-2-yl) isonicotinamide]	7	0.5
O=C(Nc1cn2nc(-c3c(-c4ccc(F)cc4)nn4c3CNCC4)ccc2n1)c1cc(F)nc(F)c1 [Example 5, 2,6-Difluoro-N-(6-(2-(4-fluorophenyl)-4,5,6,7-tetrahydropyrazolo[1,5-a]pyrazin-3-yl)imidazo[1,2-b]pyridazin-2-yl)isonicotinamide]	4.7	0.4
CC(C)NC(=O)N1CCn2nc(-c3ccc(F)cc3)c(-c3ccc4nc(NC(=O)c5ccnc(F)c5)cn4n3)c2C1 [Example 42, 3-(2-(2-Fluoroisonicotinamido)imidazo[1,2-b]pyridazin-6-yl)-2-(4-fluorophenyl)-N-isopropyl-6,7-dihydropyrazolo[1,5-a] pyrazine-5(4H)-carboxamide]	9.5	0.8
CC(C)(C)NC(=O)N1CCn2nc(-c3ccc(F)cc3)c(-c3ccc4nc(NC(=O)c5ccnc(F)c5)cn4n3)c2C1 [Example 41, N-(tert-Butyl)-3-(2-(2-fluoroisonicotinamido)imidazo[1,2-b]pyridazin-6-yl)-2-(4-fluorophenyl)-6,7-dihydropyrazolo[1,5-a]pyrazine-5 (4)-carboxamide]	20.5	2.8
O=C(Nc1cn2nc(-c3c(-c4ccc(F)cc4)nn4c3CNCC4)ccc2n1)c1ccnc(F)c1 [Example 1, 2-Fluoro-N-(6-(2-(4-fluorophenyl)-4,5,6,7-tetrahydropyrazolo[1,5-a]pyrazin-3-yl)imidazo[1,2-b]pyridazin-2-yl)isonicotinamide]	3.7	0.5
O=C(Nc1cn2nc(-c3c(-c4ccc(F)cc4)nn4c3CCC4)ccc2n1)c1ccncc1 [Example 67, N-(6-(2-(4-Fluorophenyl)-5,6-dihydro-4H-pyrrolo[1,2-b]pyrazol-3-yl)imidazo[1,2-b]pyridazin-2-yl) isonicotinamide]	3.6	0.4
N#CCC(=O)N1CCn2nc(-c3ccc(F)cc3)c(-c3ccc4nc(NC(=O)c5ccnc(F)c5)cn4n3)c2C1 [Example 24, N-(6-(5-(2-Cyanoacetyl)-2-(4-fluorophenyl)-4,5,6,7-tetrahydropyrazolo[1,5-a]pyrazin-3-yl)imidazo[1,2-b]pyridazin-2-yl)-2-fluoroisonicotinamide]	2.9	0.4
